Like-named read-outs stand apart in the source and are kept apart here.
What was measured:
[1] = system: cardiomyoblast h9c2 cells; details: cited from earlier work
[2] = target: T1, 5-HT7 receptors (Homo sapiens, UniProt P34969); experiment: PDSP radioligand competition binding, 5-HT7; details: for Ki: secondary binding assay, average of n = 3
T1 construct: University of North Carolina Psychoactive Drug Screening Project (PDSP), contract testing
Experimental: (§1) All six of the hybrid TFMPP–MDBP regioisomers reported in this manuscript were tested for their serotonin receptor and reuptake pump binding profiles by the University of North Carolina's Psychoactive Drug Screening Project (PDSP). Initially, each isomer was tested in a primary assay at a concentration of 10 umol/L for its ability to displace a standard ligand at each serotonin receptor and transporter subtype. […] The Ki (nmol/L) values were obtained from non-linear regression of radioligand competition binding isotherms in this assay and calculated from best-fit inhibitory concentration IC50 values using the Cheng–Prusoff equation. The reported values are the average of three (n = 3) determinations. Further experimental details regarding these receptor assays are presented in the PDSP Protocol Manual available at the PDSP website.

[3] = target: T2, 5-HT1A receptors (Homo sapiens, UniProt P08908); experiment: PDSP radioligand competition binding, 5-HT1A; details: secondary binding assay, average of n = 3
T2 construct: University of North Carolina Psychoactive Drug Screening Project (PDSP), contract testing
T2 sequence (P08908 1-422): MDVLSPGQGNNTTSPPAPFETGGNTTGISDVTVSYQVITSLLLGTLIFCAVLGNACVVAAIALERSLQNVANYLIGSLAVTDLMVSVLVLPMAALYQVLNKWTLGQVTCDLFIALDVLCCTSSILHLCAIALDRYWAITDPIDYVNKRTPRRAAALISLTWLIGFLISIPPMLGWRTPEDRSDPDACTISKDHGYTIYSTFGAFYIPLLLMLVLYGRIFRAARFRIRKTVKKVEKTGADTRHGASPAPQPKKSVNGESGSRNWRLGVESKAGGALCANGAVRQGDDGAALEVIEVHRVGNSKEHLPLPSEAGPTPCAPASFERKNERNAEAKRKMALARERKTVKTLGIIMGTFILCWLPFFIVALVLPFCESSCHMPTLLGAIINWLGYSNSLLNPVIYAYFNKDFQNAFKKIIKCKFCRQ
Experimental: as §1

[4] = target: T3, 5-HT2B receptors (Homo sapiens, UniProt P41595); experiment: PDSP radioligand competition binding, 5-HT2B; details: secondary binding assay, average of n = 3
T3 construct: University of North Carolina Psychoactive Drug Screening Project (PDSP), contract testing
T3 sequence (P41595 whole entry): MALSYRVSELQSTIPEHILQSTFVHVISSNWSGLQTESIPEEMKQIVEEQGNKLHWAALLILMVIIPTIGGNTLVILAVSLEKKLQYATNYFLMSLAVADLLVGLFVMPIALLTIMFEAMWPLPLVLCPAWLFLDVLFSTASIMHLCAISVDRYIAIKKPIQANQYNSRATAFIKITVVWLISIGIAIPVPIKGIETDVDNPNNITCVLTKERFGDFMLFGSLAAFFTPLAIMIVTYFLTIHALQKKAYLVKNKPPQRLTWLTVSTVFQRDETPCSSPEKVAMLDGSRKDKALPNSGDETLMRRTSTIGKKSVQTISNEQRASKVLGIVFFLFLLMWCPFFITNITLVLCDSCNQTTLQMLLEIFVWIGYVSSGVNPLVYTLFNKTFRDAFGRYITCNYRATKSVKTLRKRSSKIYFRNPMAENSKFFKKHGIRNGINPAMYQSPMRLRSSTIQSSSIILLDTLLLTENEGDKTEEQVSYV
Experimental: as §1

[5] = target: T4, SERT (serotonin reuptake pump) (Homo sapiens, UniProt P31645); experiment: PDSP radioligand competition binding, SERT; details: for Ki: secondary binding assay, average of n = 3
T4 construct: University of North Carolina Psychoactive Drug Screening Project (PDSP), contract testing
T4 sequence (P31645 whole entry, species assumed): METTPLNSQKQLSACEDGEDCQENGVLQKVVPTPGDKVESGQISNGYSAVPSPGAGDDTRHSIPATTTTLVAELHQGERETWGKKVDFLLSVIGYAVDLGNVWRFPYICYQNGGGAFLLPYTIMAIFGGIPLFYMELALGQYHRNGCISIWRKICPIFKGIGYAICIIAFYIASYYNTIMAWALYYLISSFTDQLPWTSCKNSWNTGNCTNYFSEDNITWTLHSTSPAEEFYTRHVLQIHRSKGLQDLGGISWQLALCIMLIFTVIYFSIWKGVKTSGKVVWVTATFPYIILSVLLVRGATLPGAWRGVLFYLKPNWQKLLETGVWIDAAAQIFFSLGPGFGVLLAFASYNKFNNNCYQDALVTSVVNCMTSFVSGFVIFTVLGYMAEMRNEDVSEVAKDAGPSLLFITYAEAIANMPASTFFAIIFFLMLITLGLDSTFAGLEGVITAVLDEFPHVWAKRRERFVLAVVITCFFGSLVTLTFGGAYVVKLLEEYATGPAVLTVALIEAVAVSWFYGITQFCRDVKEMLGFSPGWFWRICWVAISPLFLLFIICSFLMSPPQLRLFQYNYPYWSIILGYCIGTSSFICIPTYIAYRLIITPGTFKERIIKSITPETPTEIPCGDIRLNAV
Experimental: as §1

[6] = target: T5, 5-HT2A receptors (Homo sapiens, UniProt P28223); experiment: PDSP radioligand competition binding, 5-HT2A; details: for Ki: secondary binding assay, average of n = 3
T5 construct: University of North Carolina Psychoactive Drug Screening Project (PDSP), contract testing
T5 sequence (P28223 whole entry): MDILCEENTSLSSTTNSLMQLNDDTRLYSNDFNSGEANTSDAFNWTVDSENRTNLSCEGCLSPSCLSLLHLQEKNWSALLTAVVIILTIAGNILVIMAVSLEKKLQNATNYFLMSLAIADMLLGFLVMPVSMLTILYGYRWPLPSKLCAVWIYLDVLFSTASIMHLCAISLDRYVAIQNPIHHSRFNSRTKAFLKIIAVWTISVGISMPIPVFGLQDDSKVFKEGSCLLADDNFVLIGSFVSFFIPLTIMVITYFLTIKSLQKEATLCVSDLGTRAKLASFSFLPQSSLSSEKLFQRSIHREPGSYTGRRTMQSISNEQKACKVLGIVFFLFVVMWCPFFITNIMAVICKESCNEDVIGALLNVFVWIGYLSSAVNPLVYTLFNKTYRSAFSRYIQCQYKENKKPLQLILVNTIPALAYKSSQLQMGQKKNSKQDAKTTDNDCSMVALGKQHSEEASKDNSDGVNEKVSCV
Experimental: as §1

[7] = target: T6, 5-HT2C receptors (Homo sapiens, UniProt P28335); experiment: PDSP radioligand competition binding, 5-HT2C; details: for Ki: secondary binding assay, average of n = 3
T6 construct: University of North Carolina Psychoactive Drug Screening Project (PDSP), contract testing
T6 sequence (P28335 33-458): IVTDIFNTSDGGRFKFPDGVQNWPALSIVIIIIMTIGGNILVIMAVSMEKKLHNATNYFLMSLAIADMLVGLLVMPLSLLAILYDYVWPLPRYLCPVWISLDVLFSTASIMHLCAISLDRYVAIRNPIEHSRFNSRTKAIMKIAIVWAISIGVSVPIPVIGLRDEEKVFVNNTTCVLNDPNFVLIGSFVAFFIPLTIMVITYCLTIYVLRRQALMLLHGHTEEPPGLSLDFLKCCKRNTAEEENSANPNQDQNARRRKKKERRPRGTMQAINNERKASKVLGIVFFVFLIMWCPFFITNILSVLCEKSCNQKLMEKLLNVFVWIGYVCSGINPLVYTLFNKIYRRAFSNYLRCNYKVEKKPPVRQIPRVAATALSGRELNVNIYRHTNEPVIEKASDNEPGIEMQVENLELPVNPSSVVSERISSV
Experimental: as §1

[8] = system: 5-HT1A, 5-HT1B, 5-HT1D and 5-HT2C receptors; details: literature, no reference given; cited from earlier work
[9] = system: 5-HT2A receptor; details: literature, no reference given; cited from earlier work
[10] = target: 5-HT1B receptors; details: literature value, no reference given; cited from earlier work
[11] = system: other serotonin receptor subtypes; details: literature, no reference given; cited from earlier work
[12] = target: T5, 5-HT2A receptors; details: read-out: Ki, 5-HT2A; literature value, no reference given; cited from earlier work
[13] = system: dopamine and norepinephrine reuptake pumps; details: literature, no reference given; cited from earlier work
[14] = system: SERT; details: no reference given, cited from earlier work
[15] = target: T2, 5-HT1A receptors; details: read-out: Ki, 5-HT1A; literature value, no reference given; cited from earlier work
[16] = target: 5-HT1D receptors; details: literature value, no reference given; cited from earlier work

T1 sequence (P34969 whole entry): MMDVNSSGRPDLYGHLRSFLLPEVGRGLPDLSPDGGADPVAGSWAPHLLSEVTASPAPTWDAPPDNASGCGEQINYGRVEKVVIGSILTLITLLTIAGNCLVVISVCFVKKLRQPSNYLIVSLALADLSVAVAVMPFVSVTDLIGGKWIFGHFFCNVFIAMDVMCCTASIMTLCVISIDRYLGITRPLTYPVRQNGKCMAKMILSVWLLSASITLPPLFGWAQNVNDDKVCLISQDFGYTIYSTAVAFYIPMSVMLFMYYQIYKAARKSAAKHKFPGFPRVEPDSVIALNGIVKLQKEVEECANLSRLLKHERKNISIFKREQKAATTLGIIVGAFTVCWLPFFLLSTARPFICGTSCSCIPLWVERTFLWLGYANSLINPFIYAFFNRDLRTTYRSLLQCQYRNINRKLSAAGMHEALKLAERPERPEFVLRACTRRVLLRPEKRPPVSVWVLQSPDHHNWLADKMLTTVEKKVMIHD

Row | SMILES | binding by 5-HT7 receptors, in words [2] | Ki [2] [nM] | Ki [3] [nM] | Ki [4] [nM] | Ki [5] [nM] | Ki [6] [nM] | binding to 5-HT2C receptors, in words [7] | Ki [7] [nM] | also measured
1 | c1cc2c(cc1CN1CCNCC1)OCO2 [3,4-MDBP, 1-(3,4-methylenedioxybenzyl) piperazine] | – | – | – | – | – | – | – | – | intracellular calcium levels [1]: significant increase; mitochondrial membrane potential [1]: decrease
2 | FC(F)(F)c1ccccc1N1CCN(Cc2cccc3c2OCO3)CC1 [Compound 1, 2-TFMPP-2,3-MDBP] | bound by 5-HT7 receptors | 165 | > 1000 | 74.5 | > 1000 | > 1000 | modest binding | 868 | binding by 5-HT7 receptors, in words ([2]; listed as 2-TFMPP-2,3-MDBP): highest affinity
3 | FC(F)(F)c1cccc(N2CCN(Cc3cccc4c3OCO4)CC2)c1 [Compound 2, 3-TFMPP-2,3-MDBP] | bound by 5-HT7 receptors | 747 | 864 | 203 | > 1000 | 372 | modest binding | 753 | affinity at 5-HT2A receptors compared to 3-TFMPP, in words [6]: retained activity comparable to the parent designer drug
4 | FC(F)(F)c1ccc(N2CCN(Cc3cccc4c3OCO4)CC2)cc1 [Compound 3, 4-TFMPP-2,3-MD] | – | > 1000 | > 1000 | 870 | > 1000 | > 1000 | – | > 1000 | –
5 | FC(F)(F)c1cccc(N2CCNCC2)c1 [Compound 3-TFMPP, 1-(3-trifluoromethylphenyl) piperazine] | – | – | – | – | – | – | – | – | functional activity at all sites except 5-HT2A [8]: full agonist; functional activity at the 5-HT2A receptor [9]: weak partial agonist or antagonist; Ki [10]: 132 nM; affinity for other serotonin receptor subtypes, in words [11]: does not show significant affinity; Ki [12]: 269 nM; effects on dopamine and norepinephrine reuptake pumps [13]: no effects; intracellular calcium levels [1]: significant increase; mitochondrial membrane potential [1]: decrease; EC50 ([14]; literature value, read-out: effective concentration (EC50) at SERT): 121 nM; serotonin release, in words ([14]; literature): promotes serotonin release; Ki [15]: 288 nM; Ki [16]: 282 nM
6 | FC(F)(F)c1ccccc1N1CCN(Cc2ccc3c(c2)OCO3)CC1 [Compound 4, 2-TFMPP-3,4-MDBP] | bound by 5-HT7 receptors | 462 | > 1000 | 81 | > 1000 | > 1000 | modest binding | 924 | –
7 | FC(F)(F)c1cccc(N2CCN(Cc3ccc4c(c3)OCO4)CC2)c1 [Compound 5, 3-TFMPP-3,4-MDBP] | bound by 5-HT7 receptors | 516 | 188 | 116 | > 1000 | > 1000 | modest binding | 430 | –
8 | FC(F)(F)c1ccc(N2CCN(Cc3ccc4c(c3)OCO4)CC2)cc1 [Compound 6, 4-TFMPP-3,4-MDBP] | – | > 1000 | > 1000 | 247 | 722 | > 1000 | – | > 1000 | affinity for SERT pumps, in words [5]: significant affinity; potency at SERT relative to monosubstituted 3-TFMPP [5]: about six-times less potent

Source: PMC6197089, “Disubstituted piperazine analogues of trifluoromethylphenylpiperazine and methylenedioxybenzylpiperazine: analytical differentiation and serotonin receptor binding studies” (Forensic sciences research, 2018)
